Reference: patent publication US10308644B2, “Heterocyclic compounds as immunomodulators” (Incyte Corporation, priority 2016, dated 2019)

target: PD-1/PD-L1 (Homo sapiens (Human), UniProt Q9NZQ7); assay: PD-1/PD-L1 Homogeneous Time-Resolved Fluorescence (HTRF) Binding Assay; details: recombinant human PD-1 (3 nM) and PD-L1 (10 nM), 25° C., PBS pH 7.4
How it was run: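 Fc-tagged human PD-1 (25-167, 3 nM) and His-tagged PD-L1 (19-238, 10 nM) preincubated with inhibitor 40 min in PBS pH 7.4, 0.05% Tween-20, 0.1% BSA, 1% DMSO, 25 °C. Binding detected by HTRF (Eu anti-IgG/APC anti-His, 665/620 nm) after 60 min; IC50 from percent control activity.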

PD-1/PD-L1, sequence (Q9NZQ7 19-238): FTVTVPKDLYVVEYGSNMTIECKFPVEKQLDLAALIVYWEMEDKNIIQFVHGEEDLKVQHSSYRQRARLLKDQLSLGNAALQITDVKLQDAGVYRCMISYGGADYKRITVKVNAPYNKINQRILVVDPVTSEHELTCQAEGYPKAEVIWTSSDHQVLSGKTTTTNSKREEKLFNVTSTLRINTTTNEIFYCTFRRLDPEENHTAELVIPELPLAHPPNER

IC50, ≤ 10 nM:
CC[C@@H](CO)NCc1cnc2c(Nc3cccc(-c4cccc(-c5nc6cc(CN7CC[C@@](C)(C(=O)O)C7)cc(C#N)c6o5)c4C)c3C)nccc2c1 [Example 194, (R)-1-((7-cyano-2-(3′-(3-(((S)-1-hydroxybutan-2-ylamino)methyl)-1,7-naphthyridin-8-ylamino)-2,2′-dimethylbiphenyl-3-yl)benzo[d]oxazol-5-yl)methyl)-3-methylpyrrolidine-3-carboxylic acid]
Cc1c(-c2nc3cc(CN4CC[C@H](C(=O)O)C4)cc(C#N)c3o2)cccc1-c1cccc(-c2nc3c(s2)CN(CCO)CC3)c1C [Example 67, (S)-1-((7-cyano-2-(3′-(5-(2-hydroxyethyl)-4,5,6,7-tetrahydrothiazolo[5,4-c]pyridin-2-yl)-2,2′-dimethyl-[1,1′-biphenyl]-3-yl)benzo[d]oxazol-5-yl)methyl)pyrrolidine-3-carboxylic acid]
Cc1c(-c2nc3cc(CN4CC[C@@H](C(=O)O)C4)cc(C#N)c3o2)cccc1-c1cccc(-c2nc3c(s2)CN(C(=O)CNC(C)C)C3)c1C [Example 110, (R)-1-((7-cyano-2-(3′-(5-(2-(isopropylamino)acetyl)-5,6-dihydro-4H-pyrrolo[3,4-d]thiazol-2-yl)-2,2′-dimethylbiphenyl-3-yl)benzo[d]oxazol-5-yl)methyl)pyrrolidine-3-carboxylic acid]
Cc1c(-c2nc3cc(CN4CCC(C(=O)O)CC4)cc(C#N)c3o2)cccc1-c1cccc(NC(=O)c2nc3c(n2C)CCN(C[C@@H](C)O)C3)c1Cl [Example 155, (R)-1-((2-(2′-chloro-3′-(5-(2-hydroxypropyl)-1-methyl-4,5,6,7-tetrahydro-1H-imidazo[4,5-c]pyridine-2-carboxamido)-2-methylbiphenyl-3-yl)-7-cyanobenzo[d]oxazol-5-yl)methyl)piperidine-4-carboxylic acid]
Cc1c(-c2nc3cc(CN4CC[C@@H](C(=O)O)C4)cc(C#N)c3o2)cccc1-c1cccc(NC(=O)c2nc3c(n2C)CC(C)N(C)C3)c1Cl (stereo partly drawn) [Example 160, (3R)-1-((2-(2′-chloro-2-methyl-3′-(1,5,6-trimethyl-4,5,6,7-tetrahydro-1H-imidazo[4,5-c]pyridine-2-carboxamido)biphenyl-3-yl)-7-cyanobenzo[d]oxazol-5-yl)methyl)pyrrolidine-3-carboxylic acid]
Cc1c(-c2nc3cc(CN4CC[C@@H](C(=O)O)C4)cc(C#N)c3o2)cccc1-c1cccc(Nc2cncc3nccnc23)c1Cl [Example 15, (R)-1-((2-(2′-chloro-2-methyl-3′-(pyrido[3,4-b]pyrazin-8-ylamino)biphenyl-3-yl)-7-cyanobenzo[d]oxazol-5-yl)methyl)pyrrolidine-3-carboxylic acid]
Cc1c(NC(=O)c2nc3c(n2C)CCN(C2CC2)C3)cccc1-c1cccc(-c2nc3cc(CN4CC[C@H](C(=O)O)C4)cc(C#N)c3o2)c1C [Example 39, (S)-1-((7-cyano-2-(3′-(5-cyclopropyl-1-methyl-4,5,6,7-tetrahydro-1H-imidazo[4,5-c]pyridine-2-carboxamido)-2,2′-dimethylbiphenyl-3-yl)benzo[d]oxazol-5-yl)methyl)pyrrolidine-3-carboxylic acid]
CNCc1cnc2c(Nc3cccc(-c4cccc(-c5nc6cc(CN7CC[C@@](C)(C(=O)O)C7)cc(C#N)c6o5)c4C)c3C)nccc2c1 [Example 197, (R)-1-((7-cyano-2-(2,2′-dimethyl-3′-(3-((methylamino)methyl)-1,7-naphthyridin-8-ylamino)biphenyl-3-yl)benzo[d]oxazol-5-yl)methyl)-3-methylpyrrolidine-3-carboxylic acid]
Cc1c(-c2nc3c(o2)CN(C(=O)CN2CC[C@@H](O)C2)C3)cccc1-c1cccc(-c2nc3cc(CN4CC[C@@H](C(=O)O)C4)cc(C#N)c3o2)c1C [Example 126, (R)-1-((7-cyano-2-(3′-(5-(2-((R)-3-hydroxypyrrolidin-1-yl)acetyl)-5,6-dihydro-4H-pyrrolo[3,4-d]oxazol-2-yl)-2,2′-dimethyl-[1,1′-biphenyl]-3-yl)benzo[d]oxazol-5-yl)methyl)pyrrolidine-3-carboxylic acid]
Cc1c(-c2nc3cc(CN4CC[C@@](C)(C(=O)O)C4)cc(C#N)c3o2)cccc1-c1cccc(-c2nc3c(s2)CN(C(=O)CN(C)CC2CC2)C3)c1C [Example 219, (R)-1-((7-cyano-2-(3′-(5-(2-((cyclopropylmethyl) (methyl)amino)acetyl)-5,6-dihydro-4H-pyrrolo[3,4-d]thiazol-2-yl)-2,2′-dimethylbiphenyl-3-yl)benzo[d]oxazol-5-yl)methyl)-3-methylpyrrolidine-3-carboxylic acid]
Cc1c(Nc2nccc3cc(CN4CCC(C(=O)O)CC4)cnc23)cccc1-c1cccc(-c2nc3cc(CN[C@@H](C)CO)cc(C#N)c3o2)c1C [Example 213, (S)-1-((8-(3′-(7-cyano-5-((1-hydroxypropan-2-ylamino)methyl)benzo[d]oxazol-2-yl)-2,2′-dimethylbiphenyl-3-ylamino)1,7-naphthyridin-3-yl)methyl)piperidine-4-carboxylic acid]
Cc1c(-c2nc3c(o2)CN(C(=O)CN2CCC(O)CC2)C3)cccc1-c1cccc(-c2nc3cc(CN4CC[C@@H](C(=O)O)C4)cc(C#N)c3o2)c1C [Example 250, (R)-1-((7-cyano-2-(3′-(5-(2-(4-hydroxypiperidin-1-yl)acetyl)-5,6-dihydro-4H-pyrrolo[3,4-d]oxazol-2-yl)-2,2′-dimethyl-[1,1′-biphenyl]-3-yl)benzo[d]oxazol-5-yl)methyl)pyrrolidine-3-carboxylic acid]
CCN(C)CC(=O)N1Cc2nc(-c3cccc(-c4cccc(-c5nc6cc(CN7CCC(C(=O)O)CC7)cc(C#N)c6o5)c4C)c3C)oc2C1 [Example 244, 1-((7-cyano-2-(3′-(5-(N-ethyl-N-methylglycyl)-5,6-dihydro-4H-pyrrolo[3,4-d]oxazol-2-yl)-2,2′-dimethyl-[1,1′-biphenyl]-3-yl)benzo[d]oxazol-5-yl)methyl)piperidine-4-carboxylic acid]
Cc1c(Nc2nccc3cc(CN4CC[C@](C)(O)C4)cnc23)cccc1-c1cccc(-c2nc3cc(CN4CC[C@@H](C(=O)O)C4)cc(C#N)c3o2)c1C [Example 138, (R)-1-((7-cyano-2-(3′-(3-(((S)-3-hydroxy-3-methylpyrrolidin-1-yl)methyl)-1,7-naphthyridin-8-ylamino)-2,2′-dimethylbiphenyl-3-yl)benzo[d]oxazol-5-yl)methyl)pyrrolidine-3-carboxylic acid]
Cc1c(Nc2nccc3cc(CNC(C)(C)CO)cnc23)cccc1-c1cccc(-c2nc3cc(CN4CC[C@@](C)(C(=O)O)C4)cc(C#N)c3o2)c1C [Example 198, (R)-1-((7-cyano-2-(3′-(3-((1-hydroxy-2-methylpropan-2-ylamino)methyl)-1,7-naphthyridin-8-ylamino)-2,2′-dimethylbiphenyl-3-yl)benzo[d]oxazol-5-yl)methyl)-3-methylpyrrolidine-3-carboxylic acid]
